# In PMC4076014 (ACS chemical biology, 2014):
# Like-named read-outs stand apart in the source and are kept apart here.
# How the values were obtained:
# human dermal fibroblasts = experiment: Cellular inositol lipid levels, 3H-myo-inositol labeling and HPLC; assay type: cell-based; conditions: 50 μM, 1 hour treatment
# [1] = tested on: 5-phosphatase domain of human OCRL in COS-7 cells; experiment: Optogenetic in situ phosphatase assay; assay type: cell-based; conditions: 50 μM, COS-7, n=14 cells, P<0.001 vs DMSO control
# INPP5E = biological target: T1, INPP5E (Homo sapiens, UniProt Q9NRR6); experiment: Fluorescence polarization; assay type: biochemical
# T1 sequence (Q9NRR6 294-598 limits assumed): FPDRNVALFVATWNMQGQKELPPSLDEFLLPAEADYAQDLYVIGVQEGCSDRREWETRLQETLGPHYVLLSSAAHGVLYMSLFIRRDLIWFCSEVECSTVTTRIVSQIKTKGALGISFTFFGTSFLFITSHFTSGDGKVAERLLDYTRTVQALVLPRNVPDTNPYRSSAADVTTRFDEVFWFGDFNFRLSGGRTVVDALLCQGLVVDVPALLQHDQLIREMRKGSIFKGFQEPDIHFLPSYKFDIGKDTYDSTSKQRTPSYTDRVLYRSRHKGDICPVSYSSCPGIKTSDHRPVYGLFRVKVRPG
# INPP5B catalytic domain = INPP5B catalytic domain (Homo sapiens, UniProt P32019); experiment: Malachite green assay with IP3 substrate, dose response; assay type: biochemical
# INPP5B [2] = biological target: T2, INPP5B (Homo sapiens, UniProt P32019); experiment: biochemical
# [3] = biological target: catalytic domain of human INPP5B (Homo sapiens, UniProt P32019); experiment: Isothermal titration calorimetry; assay type: binding
# INPP5B [4] = biological target: T2, INPP5B; experiment: biochemical; remark: listed apart in the source
# INPP5A = biological target: T3, INPP5A (Homo sapiens, UniProt Q14642); experiment: Malachite green assay with IP3 substrate, dose response; assay type: biochemical
# T3 sequence (Q14642 1-402): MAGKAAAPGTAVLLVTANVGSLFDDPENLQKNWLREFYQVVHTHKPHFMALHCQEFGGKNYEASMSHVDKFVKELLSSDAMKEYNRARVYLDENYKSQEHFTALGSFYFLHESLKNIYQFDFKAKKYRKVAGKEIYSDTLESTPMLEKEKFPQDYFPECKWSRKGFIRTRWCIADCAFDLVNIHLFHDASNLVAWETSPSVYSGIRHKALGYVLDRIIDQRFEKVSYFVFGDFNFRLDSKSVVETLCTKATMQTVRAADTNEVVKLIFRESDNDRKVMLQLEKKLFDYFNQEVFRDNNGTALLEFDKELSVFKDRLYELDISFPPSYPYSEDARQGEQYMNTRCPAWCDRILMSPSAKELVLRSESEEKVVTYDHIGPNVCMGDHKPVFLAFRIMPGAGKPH
# SHIP1 = biological target: T4, SHIP1 (Mus musculus, UniProt Q9ES52); experiment: Fluorescence polarization; assay type: biochemical
# T4 sequence (Q9ES52 1-1191): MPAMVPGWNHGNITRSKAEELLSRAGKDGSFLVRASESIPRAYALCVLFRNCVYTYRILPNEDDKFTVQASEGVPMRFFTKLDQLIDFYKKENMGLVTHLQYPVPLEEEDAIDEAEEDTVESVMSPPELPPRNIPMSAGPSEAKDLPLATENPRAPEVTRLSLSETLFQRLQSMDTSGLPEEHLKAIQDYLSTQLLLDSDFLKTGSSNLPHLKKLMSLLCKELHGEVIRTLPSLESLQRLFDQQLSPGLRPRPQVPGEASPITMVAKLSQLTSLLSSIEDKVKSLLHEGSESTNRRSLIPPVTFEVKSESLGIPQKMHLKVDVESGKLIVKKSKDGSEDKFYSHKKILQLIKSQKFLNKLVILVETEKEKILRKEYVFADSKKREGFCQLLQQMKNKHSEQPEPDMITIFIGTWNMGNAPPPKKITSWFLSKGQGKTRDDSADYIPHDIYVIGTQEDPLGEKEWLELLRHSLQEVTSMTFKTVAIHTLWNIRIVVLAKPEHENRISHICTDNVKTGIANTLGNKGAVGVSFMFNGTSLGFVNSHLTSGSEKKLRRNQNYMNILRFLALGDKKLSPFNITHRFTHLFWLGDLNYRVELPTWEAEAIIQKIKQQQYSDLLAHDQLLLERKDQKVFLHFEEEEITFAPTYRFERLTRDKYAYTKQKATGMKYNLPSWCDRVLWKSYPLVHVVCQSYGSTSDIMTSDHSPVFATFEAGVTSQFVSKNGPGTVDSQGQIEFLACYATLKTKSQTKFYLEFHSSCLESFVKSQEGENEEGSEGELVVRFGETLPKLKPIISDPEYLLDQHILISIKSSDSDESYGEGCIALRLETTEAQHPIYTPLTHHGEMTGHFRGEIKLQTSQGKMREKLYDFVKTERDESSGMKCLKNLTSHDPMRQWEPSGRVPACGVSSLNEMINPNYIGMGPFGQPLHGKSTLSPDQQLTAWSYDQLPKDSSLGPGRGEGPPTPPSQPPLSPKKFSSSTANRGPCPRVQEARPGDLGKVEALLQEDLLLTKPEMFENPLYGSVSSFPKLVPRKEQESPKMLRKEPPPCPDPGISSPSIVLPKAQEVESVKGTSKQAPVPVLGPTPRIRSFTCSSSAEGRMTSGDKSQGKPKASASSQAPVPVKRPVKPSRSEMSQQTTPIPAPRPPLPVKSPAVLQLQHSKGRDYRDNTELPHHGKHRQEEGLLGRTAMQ
# Synaptojanin 1 (SJ1) = Synaptojanin 1 (SJ1) (Homo sapiens, UniProt O43426); experiment: Fluorescence polarization; assay type: biochemical
# cell cultures = conditions: preliminary experiments / data not shown
Compound,All other phosphoinositide levels measured (human dermal fibroblasts),Loss (drop) of plasma membrane iRFP-PH-PLCδ1 fluorescence [1] [%],IC50 (INPP5E) [nM],IC50 (INPP5B catalytic domain) [nM],IC50 (INPP5B [2]) [nM],"N (stoichiometry, ITC) ([3]; 25°C)",ΔH (ITC) ([3]; 25°C),ΔS (ITC) ([3]; 25°C),"Ka (association constant, ITC) ([3]; 25°C, 500 µM compound into 33 µM INPP5B catalytic domain, 5% DMSO)",IC50 (INPP5B [4]) [nM],IC50 (INPP5A) [nM],IC50 (SHIP1) [nM],IC50 (Synaptojanin 1 (SJ1)) [nM],Toxicity on cell cultures (cell cultures),"Heat of binding to INPP5B catalytic domain (ITC, in words) ([3]; protein precipitation during the experiment, results inconclusive, data not shown)"
c1cc(-c2nnc3scnn23)ccn1 [YU142670],remained unchanged,32±3,> 70000,530,17500,0.9108 ± 0.0547,−7270 ± 588.6,0.5933,2.352×10^5 ± 8.744×10^4,–,–,–,–,–,–
COc1cc(-c2nnc3sc(-c4cccs4)nn23)cc(OC)c1OC [YU142717],–,–,–,920,–,–,–,–,–,2630,–,–,–,–,–
COc1cc(CN)c(Br)cc1OCc1ccccc1Cl [YU144118],–,–,5770,1100,–,–,–,–,–,–,1810,8970,1300,–,–
CCOc1cc(CN)cc(Br)c1OCC [YU144369],–,–,2330,570,–,–,–,–,–,–,1070,2520,3630,acute toxicity,measurable heat of binding
CC(C)Oc1c(Cl)cc(CN)cc1Cl [YU144530],–,–,2800,810,–,–,–,–,–,–,1440,2890,> 70000,–,–
